Source: ChEMBL document CHEMBL1921701, “Synthesis of GSK3β mimetic inhibitors of Akt featuring a novel extended dipeptide surrogate” (Bioorg Med Chem Lett, 2011)

Key:
[1] = target: T1, RAC-alpha serine/threonine-protein kinase (Homo sapiens, UniProt P31749); assay: Inhibition of His-tagged ATP-binding domain of AKT1 assessed as GRPRTSSFAEG crosstide phosphorylation using [33P]ATP
[2] = target: T1, RAC-alpha serine/threonine-protein kinase; assay: Inhibition of His-tagged ATP-binding domain of AKT1 assessed as residual activity by measuring GRPRTSSFAEG crosstide phosphorylation at 50 uM using [33P]ATP

T1 sequence (P31749 whole entry, the tested form may be a part): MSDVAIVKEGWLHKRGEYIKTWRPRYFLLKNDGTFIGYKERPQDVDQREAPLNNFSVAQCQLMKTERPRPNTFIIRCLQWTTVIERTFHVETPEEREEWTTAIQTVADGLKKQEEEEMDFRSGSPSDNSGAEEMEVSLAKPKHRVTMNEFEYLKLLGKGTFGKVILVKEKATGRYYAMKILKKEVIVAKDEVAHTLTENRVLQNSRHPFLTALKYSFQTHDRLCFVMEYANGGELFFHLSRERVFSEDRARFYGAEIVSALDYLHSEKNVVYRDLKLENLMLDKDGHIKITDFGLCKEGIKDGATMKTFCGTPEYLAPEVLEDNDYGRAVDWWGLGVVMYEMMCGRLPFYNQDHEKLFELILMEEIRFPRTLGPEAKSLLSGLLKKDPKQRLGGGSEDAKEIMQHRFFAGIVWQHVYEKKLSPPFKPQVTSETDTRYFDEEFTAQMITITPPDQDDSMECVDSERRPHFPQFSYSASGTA

| Structure (SMILES) | IC50 [1] [µM] | inhibition [1] | Activity [2] [%] |
| --- | --- | --- | --- |
| CC(C)[C@H](NC(=O)[C@@H]1CC[C@H]2[C@H](NC(=O)CCCCN=C(N)N)COC(=O)N12)C(=O)NC(Cc1ccccc1)C(=O)NCc1ccccc1 (mixture of isomers) | 40.2 |  |  |
| CC(C)[C@H](NC(=O)[C@@H]1CC[C@H]2[C@H](NC(=O)CNC(=N)N)COC(=O)N12)C(=O)NC(Cc1ccccc1)C(=O)NCc1ccccc1 (mixture of isomers) |  |  | 89.4 |
| CC(C)[C@H](NC(=O)[C@@H]1CC[C@H]2[C@H](NC(=O)CCCCNC(=N)N)COC(=O)N12)C(=O)NC(Cc1ccccc1)C(=O)NCc1ccccc1 (mixture of isomers) |  | Dose-dependent effect | 21.1 |
| CC(C)[C@H](NC(=O)[C@@H]1CC[C@H]2[C@H](NC(=O)[C@H](CCCN=C(N)N)NC(=O)Cc3ccccc3)COC(=O)N12)C(=O)NC(Cc1ccccc1)C(=O)NCc1ccccc1 (mixture of isomers) | 15 |  |  |

Second part, the compound after the results:

| IC50 [1] [µM] | inhibition [1] | Activity [2] [%] | Structure (SMILES) |
| --- | --- | --- | --- |
|  | Dose-dependent effect | 16.8 | CC(C)[C@H](NC(=O)[C@@H]1CC[C@H]2[C@H](NC(=O)[C@H](CCCNC(=N)N)NC(=O)Cc3ccccc3)COC(=O)N12)C(=O)NC(Cc1ccccc1)C(=O)NCc1ccccc1 (mixture of isomers) |
| 3.1 |  |  | CC(C)[C@H](NC(=O)[C@@H]1CC[C@H]2[C@H](NC(=O)[C@H](CCCN=C(N)N)NC(=O)OCc3ccccc3)COC(=O)N12)C(=O)NC(Cc1ccccc1)C(=O)NCc1ccccc1 (mixture of isomers) |
|  | Dose-dependent effect | 2.2 | CC(C)[C@H](NC(=O)[C@@H]1CC[C@H]2[C@H](NC(=O)[C@H](CCCNC(=N)N)NC(=O)OCc3ccccc3)COC(=O)N12)C(=O)NC(Cc1ccccc1)C(=O)NCc1ccccc1 (mixture of isomers) |
| 16.3 | Dose-dependent effect | 14.6 | CC(C)[C@H](NC(=O)[C@@H]1CC[C@H]2[C@H](NC(=O)[C@H](CCCNC(=N)N)NC(=O)c3ccccc3)COC(=O)N12)C(=O)NC(Cc1ccccc1)C(=O)NCc1ccccc1 (mixture of isomers) |
